In brackets after ≈: the same amount, converted by molar mass. Like-named read-outs stand apart in the source and are kept apart here.
Key:
S. aureus E48 [1] = assay: microbe, parasite or virus in culture
Method: (§1) The MICs of NZX and other antibacterial agents against S. aureus strains were conducted according to the Clinical Laboratory Standards Institute (Watts et al., [2013]). […] The wells containing antibiotics were set as positive controls. Negative control wells contained a PBS buffer and bacterial suspension without antibacterial agents. The MIC value was defined as the lowest concentration of antibacterial agents at which no visible bacteria were observed. All MIC assays were performed independently in triplicate.

[2] = test system: S. aureus MRSA ATCC 43300; assay: microbe, parasite or virus in culture
Method: as §1

[3] = test system: S. aureus MSSA ATCC 25923; assay: microbe, parasite or virus in culture; details: Staphylococcus aureus, ATCC25923|MSSA
Method: as §1

S. aureus E48 [4] = assay: Survival rate and time-killing kinetic curves; type: cell-based, Staphylococcus aureus; details: for Survival rate of S. aureus E48: 1/2 × to 2 × MIC for 2 h, 1 × 10^5 CFU/ml, mean n = 3; for time to complete killing of S. aureus E48: 2 × MIC
Method: Survival rate and time-killing kinetic curves experiments were conducted as described previously (Li et al., [2020b]). […] After incubation at various times (0, 15, 30, 60, 90, and 120 min), a volume of 100 μl of bacterial suspension was taken out from a flask and diluted to count. All assays were conducted independently in triplicate.

S. aureus E48 [5] = assay: microbe, parasite or virus in culture; details: for MIC: Staphylococcus aureus, E48, read-out: MIC after 30-day serial passage
Method: The development of drug resistance of S. aureus E48 induced by NZX and antibiotics was conducted as described previously (Li et al., [2017]). The MICs of antibacterial agents were measured according to the MICs testing method as described above. […] Then, the MIC values of the next passage were conducted again, and the experimental procedures were repeated for 30 days. The development of drug resistance was determined by the fold changes in MICs.

S. aureus E48 [6] = assay: MIC after cathepsin B treatment or in MHB at pH 5.0; type: cell-based, Staphylococcus aureus; details: for MIC at pH 5.0 compared to pH 7.4 (increase): MHB adjusted to pH 5.0, lysosomal acid environment; for change of MIC in phagolysosomal proteinase environment: cathepsin B 16 μg/ml, pH 5.0 buffer, 37°C, 1 h
Method: To test the effect of phagolysosomal enzyme-cathepsin B (from bovine spleen, Sigma C7800) on the antibacterial activities of peptides, NZX was diluted to 640 μg/ml in a cathepsin buffer (5-mM L-cysteine, 20-mM sodium acetate, 1-mM EDTA, pH of 5.0) and incubated with 16 μg/ml enzyme solution at 37°C for 1 h. The MIC value of NZX against S. aureus E48 was examined. NZX without enzyme solution was set as the negative control. Additionally, to mimic the intracellular condition, the MHB medium was adjusted to a specific pH value of 5.0 to determine the MIC value of NZX against S. aureus E48 in the acidic environment (Wang et al., [2019]). In all experiments, clindamycin, linezolid, daptomycin, and ampicillin acted as antibiotic control.

S. aureus E48 [7] = type: in vivo, mouse; details: for extension of survival time: 20 mg/kg intravenous single injection; for survival rate of the mice: 7 days, n = 6
Method: Each mouse was received a peritonitis by intraperitoneal injection of S. aureus E48 suspended in a PBS buffer (2 × 10^8 CFU/ml, 0.5 ml). […] After therapy, the survival conditions of the mice were recorded within 7 days.

S. aureus E48 [8] = assay: MIC in physiological salt and serum media; type: cell-based, Staphylococcus aureus; details: MHB adjusted to 1.25 mM CaCl2
Method: The physiological salt and serum stability of NZX were performed according to the previous report (Hirsch et al., [2019]).

[9] = test system: intracellular S. aureus E48 in RAW 264.7; assay: Intracellular antibacterial activity in RAW 264.7 cells; type: cell-based, Staphylococcus aureus; details: 1, 4, 16, 64 and 128 μg/ml, 24 h
Method: The antibacterial effects of NZX against intracellular S. aureus E48 in RAW 264.7 were determined according to a previous study (Wang et al., [2018]). The antibacterial concentrations of NZX against S. aureus E48 were set as 1, 4, 16, 64, and 128 μg/ml. Daptomycin was selected as a control because it is a polypeptide drug similar to NZX. In addition, the internalization and distribution assays of NZX in RAW 264.7 were conducted according to Wang et al. ([2019]). Briefly, RAW 264.7 cells were grown on culture dishes at 37°C for 24 h. FITC or FITC-NZX (1, 16, and 64 μg/ml) was added and incubated in the culture dishes for 24 h. The cells were washed two times with PBS and quenched by 0.04% trypan blue. Samples were analyzed by flow cytometry to determine the uptake of NZX. In distribution analysis, FITC or FITC-NZX at 64 μg/ml was added and incubated in the culture dishes for 24 h. The cells were washed two times with PBS, stained with 5 μg/ml wheat germ agglutinin (WGA)-conjugated Alexa Fluor 555 (ThermoFisher Scientific, USA) and Hoechst 33342 (ThermoFisher Scientific, USA) for 10 min, and observed by confocal microscopy (Leica TCS SP 5, Germany).

S. aureus E48 [10] = assay: Bacterial burden in organs and peritoneal fluid, mouse peritonitis model; type: in vivo; details: 20 mg/kg, 24 h
Method: In this study, untreated mice that received a lethal dose of S. aureus (2 × 10^8 CFU/ml, 0.5 ml) began to die at 6 to 8 h, and all died before 24 h, which made it difficult for us to obtain the samples when the therapy effects after 24 h administration were analyzed. Therefore, the mice that received half lethal doses of S. aureus E48 (1 × 10^8 CFU/ml, 0.5 ml) were conducted in the following pharmacodynamics analysis. After 24 h therapy with NZX (5, 10, and 20 mg/kg) or daptomycin (20 mg/kg), organ tissues, including livers, lungs, spleens, hearts, and kidneys, were collected, homogenated, and plated to count bacterial burden. In addition, the total number of bacteria and intracellular bacteria counts in peritoneal fluids were determined as described by Wang et al. ([2018]). Briefly, the total bacterial CFU in the peritoneal fluid were quantified before any further procedures. In addition, the collected peritoneal fluid was centrifuged and washed to obtain peritoneal macrophage, and then extracellular bacteria were killed after treatment with 50 μg/ml lysostaphin at 37°C for 30 min. The cells were washed two times by PBS and suspended with 1 ml of cold sterile water for lysis, and the lysate was used to determine the intracellular bacterial burden.

S. aureus E48 [11] = details: ref Yang et al., 2019, cited from earlier work
Text: NZX, a variant of plectasin, has garnered interest as an ideal therapeutic drug against S. aureus because of its ability to kill intracellular bacteria and good biocompatibility (Tenland et al., [2018]; Liu et al., [2020]). […] T ...

[12] = ref Liu et al., 2020; cited from earlier work
Text: However, plectasin had some limitations before clinical application, such as cytotoxicity and trypsin instability (Yang et al., [2019]). NZX (MW 4383.89 Da), a variant of plectasin with three mutation sites (D9S, M13I, and K32R), had the increased net charge (from +1 to +2) and hydrophobicity (from −0.695 to ...

[13] = set-up: method as in Andes et al., 2009; Brinch et al., 2009; details: in human and mice serum, ref Andes et al., 2009, Brinch et al.; cited from earlier work
[14] = 1 × 10^5 CFU/ml, 16–18 h at 37°C, 96-well microplate, daptomycin with 1.25 mM calcium chloride, triplicate
[15] = text summary over two strains: S. aureus MSSA ATCC 25923 and S. aureus E48
[16] = 20 mg/kg intravenous single injection 2 h post-infection, 2 × 10^8 CFU/ml, 0.5 ml i.p.
[17] = 20 mg/kg intravenous two times (2 h and 8 h after infection)
[18] = repeated exposure at sub-MIC for 30 days

## CC1(C)S[C@@H]2[C@H](NC(=O)[C@H](N)c3ccccc3)C(=O)N2[C@H]1C(=O)O [Ampicillin]
S. aureus E48 [1]; Staphylococcus aureus
  MIC: 0.25 µg/mL (≈ 0.715 µM)
[2]; Staphylococcus aureus
  MIC: 8 µg/mL (≈ 22.9 µM)
[3]; [14]
  MIC: 0.25 µg/mL (≈ 0.715 µM)
[3]; [15]
  MIC: 0.25 µg/mL (≈ 0.715 µM)
S. aureus E48 [4]
  Survival rate of S. aureus E48: 83.21–100.31%
S. aureus E48 [5]
  MIC: 16 µg/mL (≈ 45.8 µM)
S. aureus E48 [6]
  MIC at pH 5.0 compared to pH 7.4 (increase): did not influence
  change of MIC in phagolysosomal proteinase environment: at least 4 fold
S. aureus E48 [7]
  extension of survival time: 2 to 4 days
S. aureus E48 [7]; [16]
  survival rate of the mice: all the mice were dead
S. aureus E48 [7]; [17]
  survival rate of the mice: 50%

## CCC[C@@H]1C[C@@H](C(=O)N[C@@H]([C@H]2O[C@H](SC)[C@H](O)[C@@H](O)[C@H]2O)[C@H](C)Cl)N(C)C1 [Clindamycin]
S. aureus E48 [4]
  time to complete killing of S. aureus E48: ≤ 2 h
S. aureus E48 [6]
  MIC at pH 5.0 compared to pH 7.4 (increase): ≤ 8 fold
  change of MIC in phagolysosomal proteinase environment: at least 4 fold

## CCCCCCCCCC(=O)N[C@@H](Cc1c[nH]c2ccccc12)C(=O)N[C@H](CC(N)=O)C(=O)N[C@@H](CC(=O)O)C(=O)N[C@@H]1C(=O)NCC(=O)N[C@@H](CCCN)C(=O)N[C@@H](CC(=O)O)C(=O)N[C@H](C)C(=O)N[C@@H](CC(=O)O)C(=O)NCC(=O)N[C@H](CO)C(=O)N[C@@H]([C@H](C)CC(=O)O)C(=O)N[C@@H](CC(=O)c2ccccc2N)C(=O)O[C@@H]1C [Daptomycin]
S. aureus E48 [1]
  MIC: 1 µg/mL (≈ 0.617 µM)
[2]; ATCC 43300
  MIC: 0.5 µg/mL (≈ 0.309 µM)
S. aureus E48 [4]
  Survival rate of S. aureus E48: 0–83.03%
  time to complete killing of S. aureus E48: ≤ 2 h
S. aureus E48 [5]; [18]
  MIC after 30-day serial passage: 8 µg/mL (≈ 4.94 µM)
S. aureus E48 [8]
  decrease of MIC under the addition of 1.25-mM CaCl2: 8–16 fold
S. aureus E48 [6]
  change of MIC in phagolysosomal proteinase environment: did not change
[9]
  reduction of intracellular S. aureus: 89.74~98.53%
S. aureus E48 [7]; [16]
  survival rate of the mice: 16.7%
S. aureus E48 [7]; [17]
  survival rate of the mice: 100%
S. aureus E48 [10]
  bacteria burdens of liver, lung and spleen compared with the untreated group: no obvious difference
S. aureus E48 [10]; mean ± SD, n = 6
  reduction of intracellular bacteria burden in the peritoneal fluid: 0.66 ± 0.83 Log10 CFU/ml
  reduction of total bacterial burden in the peritoneal fluid: 1.79 ± 1.05 Log10 CFU/ml

## CC(=O)NC[C@H]1CN(c2ccc(N3CCOCC3)c(F)c2)C(=O)O1 [Linezolid]
S. aureus E48 [1]; Staphylococcus aureus
  MIC: 1 µg/mL (≈ 2.96 µM)
[2]; Staphylococcus aureus
  MIC: 2 µg/mL (≈ 5.93 µM)
[3]; [14]
  MIC: 2 µg/mL (≈ 5.93 µM)
[3]; [15]
  MIC: 1 to 2 µg/mL (≈ 2.96 to 5.93 µM)
S. aureus E48 [4]
  Survival rate of S. aureus E48: 94.08–99.89%
S. aureus E48 [5]
  MIC: 2 µg/mL (≈ 5.93 µM)
S. aureus E48 [5]; [18]
  increase in the MIC value after 30-day serial passage: 2 fold
S. aureus E48 [6]
  MIC at pH 5.0 compared to pH 7.4 (increase): did not influence
  change of MIC in phagolysosomal proteinase environment: did not change
S. aureus E48 [7]
  extension of survival time: 2 to 4 days
S. aureus E48 [7]; [16]
  survival rate of the mice: all the mice were dead
S. aureus E48 [7]; 20 mg/kg intravenous two times
  lives extended: 2 to 6 days
S. aureus E48 [7]; [17]
  survival rate of the mice: did not improve the survival rate

## plectasin
S. aureus E48 [11]; 2 × MIC, within 1 h
  S. aureus E48 killed: approximately 85.85%
S. aureus E48 [11]; 2 × MIC
  time to eliminate bacteria: ≤ 2 h
S. aureus E48 [11]; strain not given, compared with Table 2
  MIC: 4 µg/mL
[12]
  hydrophobicity: −0.695
  net charge: +1
[13]
  protein-binding degree: 90%
